Test results published in PubChem BioAssay AID328 (DTP/NCI, 2004).
Several values for one entry are separate records, joined by “and”; a condition that tells them apart may be missing. Identical values can stand only once. Inconclusive results and toxic doses are left out.

System: BDF1 mice, P388 leukemia ip, median survival T/C
Assay: NCI In Vivo Anticancer Drug Screen. Data for tumor model P388 Leukemia (intraperitoneal) in B6D2F1 (BDF1) mice
Conditions: endpoint: median survival time, higher = longer survival
How it was run: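 T/C = treated-group survival ÷ vehicle-control survival; tumour transplanted into mice before dosing.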

[1] = dose: 50.0 mg/kg/injection, schedule: Q01DX009 (ip), vehicle: saline with Tween-80
[2] = dose: 100.0 mg/kg/injection, schedule: Q01DX009 (ip), vehicle: saline with Tween-80
[3] = dose: 200.0 mg/kg/injection, schedule: Q01DX009 (ip), vehicle: saline with Tween-80
[4] = dose: 100.0 mg/kg/injection, schedule: Q04DX002 (ip), vehicle: saline with Tween-80
[5] = dose: 200.0 mg/kg/injection, schedule: Q04DX002 (ip), vehicle: saline with Tween-80
[6] = dose: 400.0 mg/kg/injection, schedule: Q04DX002 (ip), vehicle: saline with Tween-80
[7] = dose: 100.0 mg/kg/injection, schedule: Q04DX003 (ip), vehicle: saline with Tween-80
[8] = dose: 200.0 mg/kg/injection, schedule: Q04DX003 (ip), vehicle: saline with Tween-80
[9] = dose: 400.0 mg/kg/injection, schedule: Q04DX003 (ip), vehicle: saline with Tween-80
[10] = dose: 100.0 mg/kg/injection, schedule: Q04DX003 (ip), vehicle: Klucel (hydroxypropylcellulose) (HPC)
[11] = dose: 200.0 mg/kg/injection, schedule: Q04DX003 (ip), vehicle: Klucel (hydroxypropylcellulose) (HPC)
[12] = dose: 400.0 mg/kg/injection, schedule: Q04DX003 (ip), vehicle: Klucel (hydroxypropylcellulose) (HPC)
[13] = dose: 25.0 mg/kg/injection, schedule: Q04DX003 (ip), vehicle: Klucel (hydroxypropylcellulose) (HPC)

Question: How did the T/C (dose: 100.0 mg/kg/injection, schedule: Q01DX001 (ip), vehicle: saline with Tween-80) turn out when `COc1ccc(C=C2c3ccccc3-c3ccccc32)cc1` was run?
Answer: 100 % of control

Question: What about the T/C (dose: 200.0 mg/kg/injection, schedule: Q01DX001 (ip), vehicle: saline with Tween-80) of the same molecule?
Answer: 95 % of control

Question: What about the T/C (dose: 400.0 mg/kg/injection, schedule: Q01DX001 (ip), vehicle: saline with Tween-80) of the same molecule?
Answer: 100 % of control

Question: Which T/C (dose: 12.5 mg/kg/injection, schedule: Q01DX009 (ip), vehicle: water) does the source give for `O=c1[nH]c(=O)c2nccnc2[nH]1` here?
Answer: 86 % of control

Question: And the T/C (dose: 12.5 mg/kg/injection, schedule: Q04DX003 (ip), vehicle: water)?
Answer: 266 % of control and 120 % of control

Question: And the T/C (dose: 25.0 mg/kg/injection, schedule: Q01DX009 (ip), vehicle: water)?
Answer: 111 % of control

Question: And the T/C (dose: 25.0 mg/kg/injection, schedule: Q04DX003 (ip), vehicle: water)?
Answer: 270 % of control and 113 % of control

Question: And the T/C (dose: 50.0 mg/kg/injection, schedule: Q01DX009 (ip), vehicle: water)?
Answer: 92 % of control

Question: What about the T/C (dose: 50.0 mg/kg/injection, schedule: Q04DX003 (ip), vehicle: water) of the same molecule?
Answer: 266 % of control and 111 % of control

Question: And the T/C (dose: 100.0 mg/kg/injection, schedule: Q01DX009 (ip), vehicle: water)?
Answer: 104 % of control

Question: What about the T/C (dose: 100.0 mg/kg/injection, schedule: Q04DX003 (ip), vehicle: water) of the same molecule?
Answer: 268 % of control and 102 % of control

Question: What about the T/C (dose: 200.0 mg/kg/injection, schedule: Q04DX003 (ip), vehicle: water) of the same molecule?
Answer: 95 % of control

Question: Which results are given for `CC1=CC=CC2=NC(=O)CCN12`?
Answer: T/C [1]: 94 % of control; T/C [2]: 94 % of control; T/C [3]: 100 % of control

Question: How did the T/C [4] turn out when `CC(=O)n1cc(CCC(=O)O)c2ccccc21` was run?
Answer: 106 % of control

Question: And the T/C [5]?
Answer: 101 % of control

Question: And the T/C [6]?
Answer: 102 % of control

Question: What does the source list for `CCCCCC[P+](c1ccccc1)(c1ccccc1)c1ccccc1`?
Answer: T/C (dose: 6.25 mg/kg/injection, schedule: Q01DX009 (ip), vehicle: saline): 114 % of control; T/C (dose: 6.25 mg/kg/injection, schedule: Q04DX003 (ip), vehicle: saline): 109 % of control; T/C (dose: 12.5 mg/kg/injection, schedule: Q01DX009 (ip), vehicle: saline): 92 % of control; T/C (dose: 12.5 mg/kg/injection, schedule: Q04DX003 (ip), vehicle: saline): 104 % of control

Question: Which results are given for `NC(=S)c1ccncc1`?
Answer: T/C [7]: 86 % of control; T/C [8]: 86 % of control; T/C [9]: 90 % of control

Question: What does the source list for `CCC[CH2][Sn]1([CH2]CCC)[O]C(=O)C[S]1`?
Answer: T/C (dose: 0.78 mg/kg/injection, schedule: Q04DX003 (ip), vehicle: saline with Tween-80): 100 % of control; T/C (dose: 1.56 mg/kg/injection, schedule: Q04DX003 (ip), vehicle: saline with Tween-80): 113 % of control; T/C (dose: 2.0 mg/kg/injection, schedule: Q04DX003 (ip), vehicle: saline with Tween-80): 112 % of control; T/C (dose: 3.0 mg/kg/injection, schedule: Q04DX003 (ip), vehicle: saline with Tween-80): 116 % of control

Question: Which results are given for `Cc1ccc(N2C(=O)CC(Sc3ccccc3N)C2=O)cc1Cl` (centres undefined)?
Answer: T/C [2]: 110 % of control; T/C [7]: 95 % of control; T/C [3]: 90 % of control; T/C [8]: 109 % of control; T/C (dose: 400.0 mg/kg/injection, schedule: Q01DX009 (ip), vehicle: saline with Tween-80): 105 % of control; T/C [9]: 109 % of control

Question: How did the T/C [10] turn out when `CCC(c1ccc2cc(OC)ccc2c1)C(CC(=O)O)C(=O)OC` (centres undefined) was run?
Answer: 87 % of control

Question: What about the T/C [11] of the same molecule?
Answer: 91 % of control

Question: And the T/C [12]?
Answer: 91 % of control

Question: What does the source list for `COC(=O)c1c(O)cc(OC)cc1OC`?
Answer: T/C (dose: 100.0 mg/kg/injection, schedule: Q01DX009 (ip), vehicle: Klucel (hydroxypropylcellulose) (HPC)): 111 % of control; T/C [10]: 100 % of control; T/C (dose: 200.0 mg/kg/injection, schedule: Q01DX009 (ip), vehicle: Klucel (hydroxypropylcellulose) (HPC)): 100 % of control; T/C [11]: 95 % of control; T/C (dose: 400.0 mg/kg/injection, schedule: Q01DX009 (ip), vehicle: Klucel (hydroxypropylcellulose) (HPC)): 100 % of control; T/C [12]: 95 % of control

Question: How did the T/C [4] turn out when `Cc1ccc(C(=Nc2ccccc2)c2ccccc2C)cc1` was run?
Answer: 88 % of control and 100 % of control

Question: What about the T/C [5] of the same molecule?
Answer: 91 % of control

Question: What about the T/C [6] of the same molecule?
Answer: 86 % of control

Question: How did the T/C (dose: 100.0 mg/kg/injection, schedule: Q01DX009 (ip), vehicle: saline) turn out when `O=C(O)C(O)C(O)C(=O)O` (centres undefined) was run?
Answer: 100 % of control

Question: And the T/C (dose: 100.0 mg/kg/injection, schedule: Q04DX003 (ip), vehicle: saline)?
Answer: 91 % of control

Question: What about the T/C (dose: 200.0 mg/kg/injection, schedule: Q01DX009 (ip), vehicle: saline) of the same molecule?
Answer: 110 % of control

Question: And the T/C (dose: 200.0 mg/kg/injection, schedule: Q04DX003 (ip), vehicle: saline)?
Answer: 100 % of control

Question: What about the T/C (dose: 400.0 mg/kg/injection, schedule: Q01DX009 (ip), vehicle: saline) of the same molecule?
Answer: 100 % of control

Question: What about the T/C (dose: 400.0 mg/kg/injection, schedule: Q04DX003 (ip), vehicle: saline) of the same molecule?
Answer: 104 % of control

Question: How did the T/C [1] turn out when `C1=C(c2ccccc2)C(c2ccccc2)=C(c2ccccc2)C(c2ccccc2)C(c2ccccc2)=N1` (centres undefined) was run?
Answer: 100 % of control

Question: What about the T/C [2] of the same molecule?
Answer: 92 % of control

Question: What about the T/C [3] of the same molecule?
Answer: 106 % of control

Question: What does the source list for `COc1ccc(NC(=O)N(CCCl)N=O)cc1OC`?
Answer: T/C (dose: 0.29 mg/kg/injection, schedule: Q04DX003 (ip), vehicle: saline with Tween-80): 107 % of control; T/C (dose: 0.44 mg/kg/injection, schedule: Q04DX003 (ip), vehicle: saline with Tween-80): 110 % of control; T/C (dose: 0.66 mg/kg/injection, schedule: Q04DX003 (ip), vehicle: saline with Tween-80): 122 % of control; T/C (dose: 0.79 mg/kg/injection, schedule: Q01DX009 (ip), vehicle: saline with Tween-80): 174 % of control; T/C (dose: 1.19 mg/kg/injection, schedule: Q01DX009 (ip), vehicle: saline with Tween-80): 185 % of control; T/C (dose: 1.78 mg/kg/injection, schedule: Q01DX009 (ip), vehicle: saline with Tween-80): 186 % of control; T/C (dose: 2.2 mg/kg/injection, schedule: Q04DX003 (ip), vehicle: saline with Tween-80): 172 % of control; T/C (dose: 2.66 mg/kg/injection, schedule: Q01DX009 (ip), vehicle: saline with Tween-80): 161 % of control and 194 % of control; T/C (dose: 3.3 mg/kg/injection, schedule: Q04DX003 (ip), vehicle: saline with Tween-80): 190 % of control; T/C (dose: 4.0 mg/kg/injection, schedule: Q01DX009 (ip), vehicle: saline with Tween-80): 169 % of control; T/C (dose: 5.0 mg/kg/injection, schedule: Q04DX003 (ip), vehicle: saline with Tween-80): 186 % of control; T/C (dose: 5.5 mg/kg/injection, schedule: Q04DX003 (ip), vehicle: saline with Tween-80): 218 % of control; T/C (dose: 6.0 mg/kg/injection, schedule: Q01DX009 (ip), vehicle: saline with Tween-80): 169 % of control; T/C (dose: 7.5 mg/kg/injection, schedule: Q04DX003 (ip), vehicle: saline with Tween-80): 209 % of control; T/C (dose: 8.3 mg/kg/injection, schedule: Q04DX003 (ip), vehicle: saline with Tween-80): 209 % of control; T/C (dose: 9.0 mg/kg/injection, schedule: Q01DX009 (ip), vehicle: saline with Tween-80): 260 % of control; T/C (dose: 12.5 mg/kg/injection, schedule: Q04DX003 (ip), vehicle: saline with Tween-80): 236 % of control; T/C (dose: 18.7 mg/kg/injection, schedule: Q04DX003 (ip), vehicle: saline with Tween-80): 281 % of control

Question: With `CCCCCCCCCCC(=O)CCCCC` as the molecule, how does the T/C (dose: 100.0 mg/kg/injection, schedule: Q01DX009 (ip), vehicle: other) read?
Answer: 90 % of control

Question: What about the T/C (dose: 200.0 mg/kg/injection, schedule: Q01DX009 (ip), vehicle: other) of the same molecule?
Answer: 100 % of control

Question: What about the T/C (dose: 400.0 mg/kg/injection, schedule: Q01DX009 (ip), vehicle: other) of the same molecule?
Answer: 110 % of control

Question: With `O=C(CCN1CC1)Nc1ccc(Cl)c(Cl)c1` as the molecule, how does the T/C [13] read?
Answer: 90 % of control

Question: What about the T/C (dose: 50.0 mg/kg/injection, schedule: Q04DX003 (ip), vehicle: Klucel (hydroxypropylcellulose) (HPC)) of the same molecule?
Answer: 104 % of control

Question: And the T/C [10]?
Answer: 100 % of control

Question: `CN(C)C(C#N)c1c[nH]c2ccccc12` (centres undefined) was tested. Which T/C (dose: 6.25 mg/kg/injection, schedule: Q01DX009 (ip), vehicle: Klucel (hydroxypropylcellulose) (HPC)) did it give?
Answer: 105 % of control

Question: What about the T/C (dose: 6.25 mg/kg/injection, schedule: Q04DX003 (ip), vehicle: Klucel (hydroxypropylcellulose) (HPC)) of the same molecule?
Answer: 109 % of control

Question: What about the T/C (dose: 12.5 mg/kg/injection, schedule: Q01DX009 (ip), vehicle: Klucel (hydroxypropylcellulose) (HPC)) of the same molecule?
Answer: 100 % of control

Question: What about the T/C (dose: 12.5 mg/kg/injection, schedule: Q04DX003 (ip), vehicle: Klucel (hydroxypropylcellulose) (HPC)) of the same molecule?
Answer: 100 % of control

Question: What about the T/C (dose: 25.0 mg/kg/injection, schedule: Q01DX009 (ip), vehicle: Klucel (hydroxypropylcellulose) (HPC)) of the same molecule?
Answer: 94 % of control

Question: What about the T/C [13] of the same molecule?
Answer: 100 % of control

Question: Which T/C [10] does the source give for `Cc1cc(C)c(C)c(Br)c1C` here?
Answer: 95 % of control

Question: And the T/C [11]?
Answer: 100 % of control

Question: What about the T/C [12] of the same molecule?
Answer: 100 % of control
